Data from PMC9911596 (Nature Communications, 2023).
Substitutions are numbered along the chain they refer to.

What was measured:
[1] = biological target: T1, Vtc1/Vtc3/Vtc4 complex (VTC complex) (Saccharomyces cerevisiae, UniProt P47075+Q02725, P47075:K129A/P47075:K132A/P47075:K136A); test: polyP synthesis, TBE-PAGE; format: biochemical; conditions: activator; 15 mM ATP, 10 mM MgCl2, 1 mM MnCl2, 0.5 mM pyrophosphate, 27 °C, 4 h; SPX KSC mutant
T1 construct: full-length subunits co-expressed in Expi293F; Vtc1 C-terminal HA, Vtc3 N-terminal 3xFlag, Vtc4 C-terminal 2xStrep; detergent-purified; 3:1:1 pentamer; with Vacuolar transporter chaperone complex subunit 1
T1 sequence (P47075 1-721 K129A/K132A/K136A): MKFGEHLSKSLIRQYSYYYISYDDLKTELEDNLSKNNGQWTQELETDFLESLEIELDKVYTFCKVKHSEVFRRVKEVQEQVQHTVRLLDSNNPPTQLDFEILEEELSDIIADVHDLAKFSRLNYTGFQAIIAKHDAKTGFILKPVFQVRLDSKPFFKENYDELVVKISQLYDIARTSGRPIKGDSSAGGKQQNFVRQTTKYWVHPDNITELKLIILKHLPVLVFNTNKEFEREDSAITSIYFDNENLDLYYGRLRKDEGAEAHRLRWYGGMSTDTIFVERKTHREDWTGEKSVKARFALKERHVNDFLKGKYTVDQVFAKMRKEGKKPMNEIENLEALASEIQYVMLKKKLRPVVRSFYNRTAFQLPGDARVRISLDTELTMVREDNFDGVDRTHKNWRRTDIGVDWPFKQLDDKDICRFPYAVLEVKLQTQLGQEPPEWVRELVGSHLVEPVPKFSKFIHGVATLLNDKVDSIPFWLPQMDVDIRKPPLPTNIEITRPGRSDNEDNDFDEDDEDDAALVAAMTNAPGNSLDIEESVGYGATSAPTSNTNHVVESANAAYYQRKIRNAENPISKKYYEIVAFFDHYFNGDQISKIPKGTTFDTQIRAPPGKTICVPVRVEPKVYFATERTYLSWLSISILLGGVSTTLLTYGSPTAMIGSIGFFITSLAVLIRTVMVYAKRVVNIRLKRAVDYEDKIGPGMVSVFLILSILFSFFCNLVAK
T1 sequence (Q02725 1-835): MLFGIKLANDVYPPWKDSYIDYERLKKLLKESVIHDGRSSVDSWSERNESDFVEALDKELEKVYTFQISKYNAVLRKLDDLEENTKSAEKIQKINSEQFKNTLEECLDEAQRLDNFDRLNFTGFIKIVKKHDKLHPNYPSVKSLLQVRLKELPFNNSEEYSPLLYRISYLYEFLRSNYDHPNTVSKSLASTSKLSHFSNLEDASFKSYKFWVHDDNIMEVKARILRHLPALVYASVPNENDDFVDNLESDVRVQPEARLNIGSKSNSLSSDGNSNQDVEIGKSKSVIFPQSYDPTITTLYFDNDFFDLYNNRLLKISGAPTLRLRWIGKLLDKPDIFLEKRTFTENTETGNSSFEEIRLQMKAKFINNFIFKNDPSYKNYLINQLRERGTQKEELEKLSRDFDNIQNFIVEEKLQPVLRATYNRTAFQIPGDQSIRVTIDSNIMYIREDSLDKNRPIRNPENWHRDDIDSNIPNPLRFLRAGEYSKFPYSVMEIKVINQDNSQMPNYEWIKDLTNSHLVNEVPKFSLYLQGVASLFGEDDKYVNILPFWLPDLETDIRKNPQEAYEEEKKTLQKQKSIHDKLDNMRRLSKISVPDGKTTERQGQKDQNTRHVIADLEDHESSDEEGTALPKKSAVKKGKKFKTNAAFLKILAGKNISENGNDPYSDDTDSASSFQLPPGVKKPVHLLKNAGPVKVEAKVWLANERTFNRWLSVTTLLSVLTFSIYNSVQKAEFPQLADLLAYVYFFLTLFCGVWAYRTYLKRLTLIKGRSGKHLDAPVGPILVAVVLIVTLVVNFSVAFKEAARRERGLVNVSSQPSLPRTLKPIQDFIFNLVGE
T1 sequence (P40046 2-129 partner): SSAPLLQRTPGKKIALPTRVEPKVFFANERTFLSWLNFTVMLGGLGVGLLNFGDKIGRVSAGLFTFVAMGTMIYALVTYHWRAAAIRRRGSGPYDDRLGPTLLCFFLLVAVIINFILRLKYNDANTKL

[2] = biological target: T2, Vtc1/Vtc3/Vtc4 complex (VTC complex) (Saccharomyces cerevisiae, UniProt P47075+Q02725); test: polyP synthesis, TBE-PAGE and DAPI; smFRET; format: biochemical; conditions: activator; 15 mM ATP, 10 mM MgCl2, 1 mM MnCl2, 0.5 mM pyrophosphate, ATP regeneration, 27 °C, 4 h; up to 10 mM InsP6; SPX domain of Vtc4 as sensor
T2 construct: full-length subunits co-expressed in Expi293F; Vtc1 C-terminal HA, Vtc3 N-terminal 3xFlag, Vtc4 C-terminal 2xStrep; detergent-purified; 3:1:1 pentamer; with Vacuolar transporter chaperone complex subunit 1
T2 sequence (P47075 1-721): T1 sequence (P47075 1-721 K129A/K132A/K136A) with A129K, A132K, A136K
T2 sequence (Q02725 1-835): T1 sequence (Q02725 1-835)
T2 sequence (P40046 2-129 partner): T1 sequence (P40046 2-129 partner)

For `O=P(O)(O)O[C@H]1[C@H](OP(=O)(O)O)[C@@H](OP(=O)(O)O)[C@H](OP(=O)(O)O)[C@@H](OP(=O)(O)O)[C@H]1OP(=O)(O)O` [InsP6], the “polyP synthesis, TBE-PAGE” value [1] was “both reduced InsP6-stimulated polyP synthesis” and the “polyP synthesis, TBE-PAGE and DAPI; smFRET” value [2] was “harbors polyP polymerase activity and that synthesizes polyP in an InsP6 dose-dependent manner”.
